Target: T1, HPK1 (Homo sapiens, UniProt Q92918)
T1 construct: A HiBiT tag was introduced by CRISPR on the N terminus of HPK1 in Jurkat cells; host or cells: Jurkat cells (ATCC TIB-152), monoclonal line with CRISPR knock-in of HiBiT at the endogenous HPK1 locus
Assay: HPK1 Cellular HiBit Degradation Assay
Format: cell-based
Conditions: HiBiT HPK1 Jurkat cells, 24 hrs; for DC50: concentration at which 50% of HPK1 was remaining, read-out: DC50 Category; for Dmax: Jurkat, read-out: Dmax Category; for Dmax / Dmax Category: maximum degradation vs DMSO vehicle control
In short: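 Degraders are dosed in an 11-point series (10 uM to 0.1 nM final) onto Jurkat cells carrying an N-terminal HiBiT tag on endogenous HPK1. After 24 hrs at 37° C, lysis-based HiBiT luminescence quantifies remaining HPK1 relative to vehicle, and curve fitting gives DC50 and Dmax.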

T1 sequence (Q92918 whole entry): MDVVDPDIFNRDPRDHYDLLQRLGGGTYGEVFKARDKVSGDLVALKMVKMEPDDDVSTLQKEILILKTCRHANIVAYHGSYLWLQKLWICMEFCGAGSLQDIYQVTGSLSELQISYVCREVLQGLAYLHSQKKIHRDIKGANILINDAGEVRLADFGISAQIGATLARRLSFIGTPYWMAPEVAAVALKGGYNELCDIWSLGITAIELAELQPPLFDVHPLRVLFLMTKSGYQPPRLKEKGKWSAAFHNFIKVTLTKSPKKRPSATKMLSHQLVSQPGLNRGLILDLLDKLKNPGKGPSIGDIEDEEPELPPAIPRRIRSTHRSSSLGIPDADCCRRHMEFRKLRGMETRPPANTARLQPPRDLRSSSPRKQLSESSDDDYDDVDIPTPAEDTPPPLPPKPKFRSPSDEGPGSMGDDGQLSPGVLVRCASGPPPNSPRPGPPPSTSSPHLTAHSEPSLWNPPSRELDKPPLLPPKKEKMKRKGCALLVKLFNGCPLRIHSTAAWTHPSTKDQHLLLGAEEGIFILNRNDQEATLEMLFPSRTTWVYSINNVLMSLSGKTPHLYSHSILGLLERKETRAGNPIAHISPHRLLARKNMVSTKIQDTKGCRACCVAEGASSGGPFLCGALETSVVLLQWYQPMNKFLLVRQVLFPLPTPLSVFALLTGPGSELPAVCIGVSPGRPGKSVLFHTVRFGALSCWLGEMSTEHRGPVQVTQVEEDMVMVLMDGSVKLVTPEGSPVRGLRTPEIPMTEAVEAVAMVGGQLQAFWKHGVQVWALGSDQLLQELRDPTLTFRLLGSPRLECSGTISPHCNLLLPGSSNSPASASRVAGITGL

Row | DC50 | Dmax | SMILES | Dmax Category
1 | < 100 nM | 70 to 85% | CC(C)n1cnc2cc(-c3ccc4c(c3)N([C@H]3C[C@@H](N5CCCCC5)C3)C(=O)C43CCN(C(=O)C4(C)CCN(C(=O)C5CCN(c6ccc(C7CCC(=O)NC7=O)nc6)CC5)CC4)CC3)nc(Nc3ccccc3F)c21 (mixture of isomers) [Example 119, (3RS)-3-[5-(4-{4-[(6-{4-[(2-fluorophenyl)amino]-3-(propan-2-yl)-3H-imidazo[4,5-c]pyridin-6-yl}-2-oxo-1-[(1S,3S)-3-(piperidin-1-yl)cyclobutyl]-1,2-dihydrospiro[indole-3,4′-piperidin]-1′-yl)carbonyl]-4-methylpiperidine-1-carbonyl}piperidin-1-yl)pyridin-2-yl]piperidine-2,6-dione] | –
2 | 500 to 1000 nM | 50 to 70% | CC(C)n1cnc2cc(-c3ccc4c(c3)N([C@H]3C[C@@H](N5CCCCC5)C3)C(=O)C43CCN(C(=O)C4CCN(C(=O)[C@H]5CC[C@H](N(C)c6cccc7c6C(=O)N(C6CCC(=O)NC6=O)C7=O)CC5)CC4)CC3)nc(NC3CC3)c21 (mixture of isomers) [Example 133, 2-[(3RS)-2,6-dioxopiperidin-3-yl]-4-{methyl[(1R,4R)-4-[4-({6-[4-(cyclopropylamino)-3-(propan-2-yl)-3H-imidazo[4,5-c]pyridin-6-yl]-2-oxo-1-[(1S,3S)-3-(piperidin-1-yl)cyclobutyl]-1,2-dihydrospiro[indole-3,4′-piperidin]-1′-yl}carbonyl)piperidine-1-carbonyl]cyclohexyl]amino}-2,3-dihydro-1H-isoindole-1,3-dione] | –
3 | < 100 nM | 70 to 85% | CC(C)n1cnc2cc(-c3ccc4c(c3)N([C@H]3C[C@@H](N5CCCCC5)C3)C(=O)C43CCN(C(=O)C4(C)CCN(C(=O)C5CCN(c6ccc(C7CCC(=O)NC7=O)nc6)CC5)CC4)CC3)nc(Nc3ccncc3F)c21 (mixture of isomers) [Example 120, (3RS)-3-[5-(4-{4-[(6-{4-[(3-fluoropyridin-4-yl)amino]-3-(propan-2-yl)-3H-imidazo[4,5-c]pyridin-6-yl}-2-oxo-1-[(1S,3S)-3-(piperidin-1-yl)cyclobutyl]-1,2-dihydrospiro[indole-3,4′-piperidin]-1′-yl)carbonyl]-4-methylpiperidine-1-carbonyl}piperidin-1-yl)pyridin-2-yl]piperidine-2,6-dione] | –
4 | < 100 nM | 70 to 85% | CC(C)n1cnc2cc(-c3ccc4c(c3)N([C@H]3C[C@@H](N5CCCCC5)C3)C(=O)C43CCN(C(=O)C4(C)CCN(C(=O)[C@H]5CC[C@H](Nc6ccc(N7CCC(=O)NC7=O)cn6)CC5)CC4)CC3)nc(NC3CC3)c21 [Example 192, 1-(6-{[(1R,4R)-4-[4-({6-[4-(cyclopropylamino)-3-(propan-2-yl)-3H-imidazo[4,5-c]pyridin-6-yl]-2-oxo-1-[(1S,3S)-3-(piperidin-1-yl)cyclobutyl]-1,2-dihydrospiro[indole-3,4′-piperidin]-1′-yl}carbonyl)-4-methylpiperidine-1-carbonyl]cyclohexyl]amino}pyridin-3-yl)-1,3-diazinane-2,4-dione] | –
5 | < 100 nM | > 85% | CC(C)n1cnc2cc(-c3ccc4c(c3)N([C@H]3C[C@@H](N5CCCCC5)C3)C(=O)C43CCN(C(=O)C4(C)CCN(C(=O)C5CCN(c6ccc(C7CCC(=O)NC7=O)cc6)CC5)CC4)CC3)nc(Nc3ccccc3F)c21 (mixture of isomers) [Example 110, (3RS)-3-[4-(4-{4-[(6-{4-[(2-fluorophenyl)amino]-3-(propan-2-yl)-3H-imidazo[4,5-c]pyridin-6-yl}-2-oxo-1-[(1S,3S)-3-(piperidin-1-yl)cyclobutyl]-1,2-dihydrospiro[indole-3,4′-piperidin]-1′-yl)carbonyl]-4-methylpiperidine-1-carbonyl}piperidin-1-yl)phenyl]piperidine-2,6-dione] | –

More lines, now with the values behind:

Row | SMILES | DC50 | Dmax | Dmax Category
6 | CC(C)n1cnc2cc(-c3ccc4c(c3)N([C@H]3C[C@@H](N5CCCCC5)C3)C(=O)C43CCN(C(=O)[C@@H]4CCN(C(=O)[C@H]5CC[C@H](Oc6ccc(C7CCC(=O)NC7=O)cc6)CC5)C4)CC3)nc(Nc3ccccc3F)c21 (stereo partly drawn) [Example 14, 3-(4-{[(1R,4R)-4-[(3R)-3-[(6-{4-[(2-fluorophenyl)amino]-3-(propan-2-yl)-3H-imidazo[4,5-c]pyridin-6-yl}-2-oxo-1-[(1S,3S)-3-(piperidin-1-yl)cyclobutyl]-1,2-dihydrospiro[indole-3,4′-piperidin]-1′-yl)carbonyl]pyrrolidine-1-carbonyl]cyclohexyl]oxy}phenyl)piperidine-2,6-dione] | < 100 nM | > 85% | –
7 | CC(C)n1cnc2cc(-c3ccc4c(c3)N([C@H]3C[C@@H](N5C6CCC5COC6)C3)C(=O)C43CCN(C(=O)C4(C)CCN(C(=O)CC5CCN(c6ccc(C7CCC(=O)NC7=O)cn6)CC5)CC4)CC3)nc(NC3CC3)c21 (mixture of isomers) [Example 222, (3RS)-3-[6-(4-{2-[4-({6-[4-(cyclopropylamino)-3-(propan-2-yl)-3H-imidazo[4,5-c]pyridin-6-yl]-2-oxo-1-[(1S,3S)-3-{3-oxa-8-Azabicyclo[3.2.1]octan-8-yl}cyclobutyl]-1,2-dihydrospiro[indole-3,4′-piperidin]-1′-yl}carbonyl)-4-methylpiperidin-1-yl]-2-oxoethyl}piperidin-1-yl)pyridin-3-yl]piperidine-2,6-dione] | 100 to 500 nM | 50 to 70% | –
8 | CC(C)n1cnc2cc(-c3ccc4c(c3)N([C@H]3C[C@@H](N5CCCCC5)C3)C(=O)C43CCN(C(=O)[C@@H]4CCN(C(=O)[C@H]5CC[C@H](Oc6ccc(C7CCC(=O)NC7=O)cc6)CC5)C4)CC3)nc(Nc3ccncc3F)c21 (stereo partly drawn) [Example 15, 3-(4-{[(1R,4R)-4-[(3R)-3-[(6-{4-[(3-fluoropyridin-4-yl)amino]-3-(propan-2-yl)-3H-imidazo[4,5-c]pyridin-6-yl}-2-oxo-1-[(1S,3S)-3-(piperidin-1-yl)cyclobutyl]-1,2-dihydrospiro[indole-3,4′-piperidin]-1′-yl)carbonyl]pyrrolidine-1-carbonyl]cyclohexyl]oxy}phenyl)piperidine-2,6-dione] | < 100 nM | > 85% | –
9 | CC(C)n1cnc2cc(-c3ccc4c(c3)N([C@H]3C[C@@H](N5C6CCC5COC6)C3)C(=O)C43CCN(C(=O)C4(C)CCN(C(=O)CC5CCN(c6ccc(C7CCC(=O)NC7=O)cc6)CC5)CC4)CC3)nc(NC3CC3)c21 (mixture of isomers) [Example 202, (3RS)-3-[4-(4-{2-[4-({6-[4-(cyclopropylamino)-3-(propan-2-yl)-3H-imidazo[4,5-c]pyridin-6-yl]-2-oxo-1-[(1S,3S)-3-{3-oxa-8-azabicyclo[3.2.1]octan-8-yl}cyclobutyl]-1,2-dihydrospiro[indole-3,4′-piperidin]-1′-yl}carbonyl)-4-methylpiperidin-1-yl]-2-oxoethyl}piperidin-1-yl)phenyl]piperidine-2,6-dione] | 500 to 1000 nM | 50 to 70% | –
10 | CC(C)n1cnc2cc(-c3ccc4c(c3)N([C@H]3C[C@@H](N5CCCCC5)C3)C(=O)C43CCN(C(=O)C4CCN(C(=O)C5CCN(c6ccc(N7CCC(=O)NC7=O)cn6)CC5)CC4)CC3)nc(Nc3ccccc3F)c21 [Example 80, 1-[6-(4-{4-[(6-{4-[(2-fluorophenyl)amino]-3-(propan-2-yl)-3H-imidazo[4,5-c]pyridin-6-yl}-2-oxo-1-[(1S,3S)-3-(piperidin-1-yl)cyclobutyl]-1,2-dihydrospiro[indole-3,4′-piperidin]-1′-yl)carbonyl]piperidine-1-carbonyl}piperidin-1-yl)pyridin-3-yl]-1,3-diazinane-2,4-dione] | < 100 nM | 70 to 85% | –
11 | CC(C)n1cnc2cc(-c3ccc4c(c3)N(C3CC(N5CCCCC5)C3)C(=O)C43CCN(C(=O)C4(C)CCN(C(=O)C5(C)CCN(c6ccc(C7CCC(=O)NC7=O)cn6)CC5)CC4)CC3)nc(NC3CC3)c21 (racemic) [Example 151, (3RS)-3-(6-{4-[4-({6-[4-(cyclopropylamino)-3-isopropylimidazo[4,5-c]pyridin-6-yl]-2-oxo-1-[(1S,3S)-3-(piperidin-1-yl)cyclobutyl]spiro[indole-3,4′-piperidin]-1′-yl}carbonyl)-4-methylpiperidine-1-carbonyl]-4-methylpiperidin-1-yl}pyridin-3-yl)piperidine-2,6-dione] | < 100 nM | – | B (B: >70%-<85%)
12 | CC(C)n1cnc2cc(-c3ccc4c(c3)N(C3CC(N5CCCCC5)C3)C(=O)C43CCN(C(=O)C4CCC(C(=O)N5CCC(COc6ccc(C7CCC(=O)NC7=O)cc6)CC5)CC4)CC3)nc(NC3CC3)c21 (racemic) [Example 230, (3RS)-3-[4-({1-[(1R,4R)-4-({6-[4-(cyclopropylamino)-3-(propan-2-yl)-3H-imidazo[4,5-c]pyridin-6-yl]-2-oxo-1-[(1S,3S)-3-(piperidin-1-yl)cyclobutyl]-1,2-dihydrospiro[indole-3,4′-piperidin]-1′-yl}carbonyl)cyclohexanecarbonyl]piperidin-4-yl}methoxy)phenyl]piperidine-2,6-dione] | < 100 nM | – | C (C: >50%-<70%)
13 | CC(C)n1cnc2cc(-c3ccc4c(c3)N([C@H]3C[C@@H](N5CCCCC5)C3)C(=O)C43CCN(C(=O)[C@@H]4CCN(C(=O)[C@H]5CC[C@H](Nc6cccc7c6C(=O)N(C6CCC(=O)NC6=O)C7=O)CC5)C4)CC3)nc(Nc3ccncc3F)c21 (mixture of isomers) [Example 11, 2-[(3RS)-2,6-dioxopiperidin-3-yl]-4-{[(1R,4R)-4-[(3R)-3-[(6-{4-[(3-fluoropyridin-4-yl)amino]-3-(propan-2-yl)-3H-imidazo[4,5-c]pyridin-6-yl}-2-oxo-1-[(1S,3S)-3-(piperidin-1-yl)cyclobutyl]-1,2-dihydrospiro[indole-3,4′-piperidin]-1′-yl)carbonyl]pyrrolidine-1-carbonyl]cyclohexyl]amino}-2,3-dihydro-1H-isoindole-1,3-dione] | 100 to 500 nM | 50 to 70% | –

From patent US12091426B2, “Bifunctional degraders of hematopoietic progenitor kinase and therapeutic uses thereof” (Nurix Therapeutics, Inc., priority 2021, dated 2024)
